Measured values from article PMC12645437, “Orthogonal IMiD-Degron Pairs Induce Selective Protein Degradation in Cells” (ACS Chemical Biology, 2025).

Legend:
Jurkat cells = test: TMTpro quantitative proteomics, 16 h; details: Jurkat whole cell extracts, TMTpro SPS-MS3
Protocol: (§1) Quantitative proteomics screens were carried out in untransduced Jurkat cells, embryonic stem cells (ESCs), and the multiple myeloma cell line, MM.1S. We used Jurkat cells, as our work up to this point had employed this cell line, and we selected ESCs and MM.1S cells as they express known CRBN neosubstrates, including IKZF1, IKZF3, RAB28, RNF166, SALL4, ZFP91, and ZNF827.
(§2) Proteomics - cell lysis and protein digestion
(§3) The viability of Jurkat cells was tested after 16-h treatment with corresponding chemicals
viable cells in each condition. Next, ~10^7 cells per condition were collected by centrifugation (1000 rpm), washed twice with ice-cold PBS, and lysed in RIPA buffer [50 mM HEPES pH 7.4, 150 mM NaCl, 1% sodium deoxycholate, 1% NP-40, 0.1% SDS, 10 mM sodium pyrophosphate, 10 mM β-glycerophosphate, 2.5 mM MgCl2, 200 µM TCEP, phosphatase and protease inhibitor cocktail (in-house)], to produce whole cell extracts. Whole-cell extracts were sonicated, and protein concentrations were determined using the Bradford assay. Protein extracts (100 µg) were subjected to disulfide bond reduction with 5 mM TCEP (10 min) and alkylation with 25 mM chloroacetamide (20 min). Methanol–chloroform precipitation was performed prior to protease digestion. In brief, four parts of neat methanol were added to each sample and vortexed, one part chloroform was added to the sample and vortexed, and finally, three parts water was added to the sample and vortexed. The sample was centrifuged at 8000 rpm for 5 min at room temperature and subsequently washed twice with 100% methanol. Samples were resuspended in 100 mM EPPS pH8.5 containing
0.1% RapiGest and digested at 37 °C for 6 h with trypsin at a 100:1 protein-to-protease ratio.
Samples were then subjected to TMTpro
labeling. The preparation of MM1S cell extracts was conducted using the same procedure as for
Jurkat cells. ESC cells were plated onto 6 cm dishes 24 hours prior to the chemical treatment.
Following the chemical treatment, the cells on the dish were washed with DPBS four times, after
which RIPA buffer was added directly to the dish, and the lysate was collected using a scraper.
The whole cell lysates were then processed similarly to the Jurkat cell lysates.
Proteomics - Tandem mass tag labeling
Proline-based reporter isobaric Tandem Mass Tag (TMTpro) labeling of dried peptide samples
resuspended in 100 mM EPPS pH 8.5, was carried out as follows. TMTpro reagent was added to
samples (100 µg peptide), along with acetonitrile, to achieve a final acetonitrile concentration of
approximately 30% (v/v). Following incubation at room temperature for 1 h, the labeling efficiency
of a small aliquot was tested. The reaction was then quenched with hydroxylamine to a final
concentration of 0.5% (v/v) for 15 min. The TMTpro-labeled samples were pooled together at a
1:1 ratio. The sample was vacuum centrifuged to near dryness and subjected to C18 solid-phase
The dried TMTpro-labeled sample was resuspended in 100 μL of 10 mM NH4HCO3 pH 8.0 and
fractionated using basic pH reverse phase HPLC 40. Briefly, samples were offline fractionated over
a 90 min run, into 96 fractions by high pH reverse-phase HPLC (Agilent LC1260) through an aeris
peptide xb-c18 column (Phenomenex; 250 mm × 3.6 mm) for total proteome with mobile phase A
containing 5% acetonitrile and 10 mM NH4HCO3, and mobile phase B containing 90% acetonitrile

[1] = molecular target: T1, ZF-EGFP fusion protein with the HEIP, AEVK, WEIS, or WT ZF degron (Homo sapiens, UniProt Q9UKT9); test: Western blot for ZF-EGFP fusion protein; assay type: cell-based
T1 construct: The degron spans residues 130–189 of IKZF3; expressed in transfected cells; host or cells: Jurkat, lentivirally transduced, presorted mCherry+

MM.1S cells = test: TMTpro quantitative proteomics, 16 h; details: 1 μM
Protocol: as §1, §2, §3
viable cells in each condition. Next, ~10^7 cells per condition were collected by centrifugation (1000 rpm), washed twice with ice-cold PBS, and lysed in RIPA buffer [50 mM HEPES pH 7.4, 150 mM NaCl, 1% sodium deoxycholate, 1% NP-40, 0.1% SDS, 10 mM sodium pyrophosphate, 10 mM β-glycerophosphate, 2.5 mM MgCl2, 200 µM TCEP, phosphatase and protease inhibitor cocktail (in-house)], to produce whole cell extracts. Whole-cell extracts were sonicated, and protein concentrations were determined using the Bradford assay. Protein extracts (100 µg) were subjected to disulfide bond reduction with 5 mM TCEP (10 min) and alkylation with 25 mM chloroacetamide (20 min). Methanol–chloroform precipitation was performed prior to protease digestion. […]

[2] = molecular target: T2, endogenous IKZF3 in Jurkat cells (Homo sapiens, UniProt Q96SW2+Q9UKT9); test: Western blot for endogenous IKZF3; assay type: cell-based
T2 construct: endogenous in cells; host or cells: Jurkat (transduced with ZF-EGFP constructs, or untransduced)

[3] = molecular target: T3, Q147A mutant degron (ANQS) fused to EGFP (Homo sapiens, UniProt Q96SW2+Q9UKT9, Q147A); test: Ratiometric EGFP:mCherry flow cytometry degradation assay, 18 h; assay type: cell-based; details: Jurkat, read-out: DMax Q147A/%
T3 construct: pLVX-Sprout-IKZF3 130-189aa Q147A (ANQS); expressed in transfected cells

[4] = protein AADAT isoform 2 (Q8N5Z0-2)

T2 sequence (Q9UKT9 whole entry): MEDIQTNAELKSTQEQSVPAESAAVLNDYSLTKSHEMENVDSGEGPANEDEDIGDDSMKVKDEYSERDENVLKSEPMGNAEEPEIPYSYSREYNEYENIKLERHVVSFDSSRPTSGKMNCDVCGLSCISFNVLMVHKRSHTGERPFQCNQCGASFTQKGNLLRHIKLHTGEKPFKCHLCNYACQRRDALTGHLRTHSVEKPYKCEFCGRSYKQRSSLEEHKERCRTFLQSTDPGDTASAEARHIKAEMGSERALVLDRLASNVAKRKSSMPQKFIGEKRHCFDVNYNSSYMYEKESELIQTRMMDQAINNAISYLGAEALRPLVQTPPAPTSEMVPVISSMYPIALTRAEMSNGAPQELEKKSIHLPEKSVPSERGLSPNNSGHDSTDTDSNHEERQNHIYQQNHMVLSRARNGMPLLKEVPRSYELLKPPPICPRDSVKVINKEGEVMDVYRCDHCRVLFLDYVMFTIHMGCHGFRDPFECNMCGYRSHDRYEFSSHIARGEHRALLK
T2 sequence (Q96SW2 whole entry): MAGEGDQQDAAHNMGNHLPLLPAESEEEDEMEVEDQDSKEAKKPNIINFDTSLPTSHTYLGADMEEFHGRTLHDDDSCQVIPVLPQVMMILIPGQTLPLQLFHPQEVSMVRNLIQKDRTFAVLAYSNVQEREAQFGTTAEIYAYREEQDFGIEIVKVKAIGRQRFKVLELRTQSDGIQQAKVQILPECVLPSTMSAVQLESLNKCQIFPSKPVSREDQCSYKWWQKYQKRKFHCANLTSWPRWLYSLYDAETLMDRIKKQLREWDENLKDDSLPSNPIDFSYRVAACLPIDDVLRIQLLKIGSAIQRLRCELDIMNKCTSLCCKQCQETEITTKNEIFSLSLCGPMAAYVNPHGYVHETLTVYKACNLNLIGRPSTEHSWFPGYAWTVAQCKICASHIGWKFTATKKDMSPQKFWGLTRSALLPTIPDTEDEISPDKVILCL
T2 sequence (Q16531 whole entry partner): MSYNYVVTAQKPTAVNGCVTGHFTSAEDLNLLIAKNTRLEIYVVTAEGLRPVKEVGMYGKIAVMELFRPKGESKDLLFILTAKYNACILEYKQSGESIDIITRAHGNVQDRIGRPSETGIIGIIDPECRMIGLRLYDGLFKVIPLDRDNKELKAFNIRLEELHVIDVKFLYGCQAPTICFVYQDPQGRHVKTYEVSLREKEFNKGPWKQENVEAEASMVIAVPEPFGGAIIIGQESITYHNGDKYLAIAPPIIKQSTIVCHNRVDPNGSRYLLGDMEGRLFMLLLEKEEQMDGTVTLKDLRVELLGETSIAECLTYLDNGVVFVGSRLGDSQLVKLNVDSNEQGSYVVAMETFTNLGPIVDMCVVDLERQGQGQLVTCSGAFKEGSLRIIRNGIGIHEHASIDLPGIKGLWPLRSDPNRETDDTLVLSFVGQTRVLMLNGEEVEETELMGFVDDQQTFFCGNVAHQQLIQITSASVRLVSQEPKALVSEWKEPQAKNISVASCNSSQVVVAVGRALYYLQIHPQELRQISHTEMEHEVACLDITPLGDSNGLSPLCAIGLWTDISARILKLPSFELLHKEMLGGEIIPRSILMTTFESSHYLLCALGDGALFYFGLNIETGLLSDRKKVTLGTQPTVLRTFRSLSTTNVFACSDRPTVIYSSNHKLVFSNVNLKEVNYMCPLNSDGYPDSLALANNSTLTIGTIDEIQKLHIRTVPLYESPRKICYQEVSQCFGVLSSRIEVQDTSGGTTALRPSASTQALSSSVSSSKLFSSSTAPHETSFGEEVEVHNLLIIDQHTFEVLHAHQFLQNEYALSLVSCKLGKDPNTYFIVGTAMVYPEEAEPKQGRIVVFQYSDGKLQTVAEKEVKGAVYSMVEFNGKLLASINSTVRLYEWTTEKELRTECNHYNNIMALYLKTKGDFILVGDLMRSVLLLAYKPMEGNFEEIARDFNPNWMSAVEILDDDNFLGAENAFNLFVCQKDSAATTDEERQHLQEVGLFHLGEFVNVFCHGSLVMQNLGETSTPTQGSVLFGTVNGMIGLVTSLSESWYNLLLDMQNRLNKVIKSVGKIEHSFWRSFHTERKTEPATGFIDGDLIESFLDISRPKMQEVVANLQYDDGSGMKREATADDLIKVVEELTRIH
T3 sequence (Q9UKT9 130-189 Q147A): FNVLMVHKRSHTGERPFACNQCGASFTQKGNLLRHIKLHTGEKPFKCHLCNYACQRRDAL
T3 sequence (Q96SW2 whole entry, the tested form may be a part): as the sequence (Q96SW2 whole entry) above
T3 sequence (Q16531 whole entry partner, the tested form may be a part): as the sequence (Q16531 whole entry partner) above
T1 sequence (Q96SW2 whole entry, the tested form may be a part): as the sequence (Q96SW2 whole entry) above
T1 sequence (Q9UKT9 130-189): as the sequence (Q9UKT9 130-189 Q147A) above, with A18Q counted along it
T1 sequence (Q16531 2-1140, further chain): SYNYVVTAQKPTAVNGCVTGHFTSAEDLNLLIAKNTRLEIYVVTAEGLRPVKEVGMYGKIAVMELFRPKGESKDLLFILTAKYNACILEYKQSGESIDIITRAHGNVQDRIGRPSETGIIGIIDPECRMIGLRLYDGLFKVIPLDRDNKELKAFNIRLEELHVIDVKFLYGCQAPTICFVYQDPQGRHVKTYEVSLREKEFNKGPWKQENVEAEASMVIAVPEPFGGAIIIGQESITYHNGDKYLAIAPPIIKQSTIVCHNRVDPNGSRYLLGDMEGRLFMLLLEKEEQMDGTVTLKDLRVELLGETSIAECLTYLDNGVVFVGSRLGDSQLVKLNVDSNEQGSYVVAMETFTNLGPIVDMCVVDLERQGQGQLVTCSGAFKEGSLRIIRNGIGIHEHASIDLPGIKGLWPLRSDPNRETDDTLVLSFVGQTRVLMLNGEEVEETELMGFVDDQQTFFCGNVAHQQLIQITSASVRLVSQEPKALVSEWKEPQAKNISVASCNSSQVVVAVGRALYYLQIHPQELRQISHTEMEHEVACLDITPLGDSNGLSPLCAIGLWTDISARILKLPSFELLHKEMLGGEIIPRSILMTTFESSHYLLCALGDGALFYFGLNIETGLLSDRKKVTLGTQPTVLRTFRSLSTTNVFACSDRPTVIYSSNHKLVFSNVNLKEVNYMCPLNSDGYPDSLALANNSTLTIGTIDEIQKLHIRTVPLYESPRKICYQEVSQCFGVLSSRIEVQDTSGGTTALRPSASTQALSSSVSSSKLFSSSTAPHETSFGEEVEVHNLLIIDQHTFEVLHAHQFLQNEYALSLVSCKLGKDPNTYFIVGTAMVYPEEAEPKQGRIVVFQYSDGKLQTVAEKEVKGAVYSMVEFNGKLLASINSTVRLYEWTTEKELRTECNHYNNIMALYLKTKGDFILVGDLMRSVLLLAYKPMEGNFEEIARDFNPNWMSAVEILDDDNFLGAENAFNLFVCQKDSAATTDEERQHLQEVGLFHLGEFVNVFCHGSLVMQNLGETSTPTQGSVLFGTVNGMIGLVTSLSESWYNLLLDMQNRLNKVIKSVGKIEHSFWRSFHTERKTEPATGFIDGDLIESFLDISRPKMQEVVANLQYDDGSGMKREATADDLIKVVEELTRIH

## Nc1cccc2c1C(=O)N(C1CCC(=O)NC1=O)C2=O (centres unmarked) [Compound 2, pomalidomide]
Jurkat cells; protein A2M (P01023)
  Scaled value (to 150), replicate 01: 7.144
  Scaled value (to 150), replicate 02: 8.281
  Scaled value (to 150), replicate 03: 7.913
Jurkat cells; protein AAAS (Q9NRG9)
  Scaled value (to 150), replicate 01: 9.781
  Scaled value (to 150), replicate 02: 9.111
  Scaled value (to 150), replicate 03: 9.328
Jurkat cells; protein AACS (Q86V21)
  Scaled value (to 150), replicate 01: 9.6081
  Scaled value (to 150), replicate 02: 10.2184
  Scaled value (to 150), replicate 03: 9.9438
Jurkat cells; [4]
  Scaled value (to 150), replicate 01: 9.467
  Scaled value (to 150), replicate 02: 10.1133
  Scaled value (to 150), replicate 03: 9.458
[1]
  degradation of WT degron-tagged EGFP (Western blot): induced degradation of EGFP
MM.1S cells
  proteins significantly degraded (quantitative proteomics): IKZF1, IKZF3, and at least 6 other proteins were significantly degraded
[2]
  degradation of endogenous IKZF3 (Western blot): did cause IKZF3 degradation
  endogenous IKZF3 levels (Western blot): depleted endogenous IKZF3
[3]
  Dmax: 94%
